Experimental data from PMC3577903, “Staphylococcus aureus FepA and FepB Proteins Drive Heme Iron Utilization in Escherichia coli” (PLoS ONE, 2013).

Molecular target: T1, FepB (FepB-6His, apo-FepB) (Staphylococcus aureus, UniProt Q2G130)
T1 construct: gene SAOUHSC_00326; Tat signal peptide removed; six-histidine tag kept (pET22b NdeI/XhoI); expressed in E. coli; apo form monomeric after gel filtration (heme-loaded form dimeric)
Assay: UV-visible absorbance titration (Soret band […] nm), one-site fit
Format: binding
Settings: apo-FepB 2.2 µM, 50 mM Tris-HCl pH 8.0, 0.2 M NaCl, room temperature; stoichiometry 0.9; PPIX in DMSO; stoichiometry 0.7

T1 sequence (Q2G130 entry or part of it): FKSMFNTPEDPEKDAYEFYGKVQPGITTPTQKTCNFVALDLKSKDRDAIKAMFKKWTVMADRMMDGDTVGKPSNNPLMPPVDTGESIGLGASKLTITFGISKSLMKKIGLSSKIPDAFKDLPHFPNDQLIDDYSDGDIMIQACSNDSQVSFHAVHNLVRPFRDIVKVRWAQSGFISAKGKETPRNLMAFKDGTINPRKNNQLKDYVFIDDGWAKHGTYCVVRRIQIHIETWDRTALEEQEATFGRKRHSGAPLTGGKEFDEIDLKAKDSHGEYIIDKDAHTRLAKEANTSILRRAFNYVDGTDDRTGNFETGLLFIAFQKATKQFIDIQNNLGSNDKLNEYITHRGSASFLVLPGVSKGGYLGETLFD

Structure (SMILES): C=CC1=C(C)c2cc3[nH]c(cc4nc(cc5[nH]c(cc1n2)c(C)c5CCC(=O)O)C(CCC(=O)O)=C4C)c(C)c3C=C [PPIX]
- Kd: 21.1±5,2 nM
